Data on three compounds can be found in PMC8852625, “A Computer-Aided Approach for the Discovery of D-Peptides as Inhibitors of SARS-CoV-2 Main Protease” (Frontiers in Molecular Biosciences, 2022).

The subject of one test is 3CL^pro. To be noted: in vivo; cited from earlier work.

Like-named read-outs stand apart in the source and are kept apart here.

On to `CC(C)(C)[C@H](NC(=O)C(F)(F)F)C(=O)N1C[C@H]2[C@@H]([C@H]1C(=O)N[C@H](C#N)C[C@@H]1CCNC1=O)C2(C)C` [PF-07321332], for which the “phase I clinical trial result” value in the test on 3CL^pro was “promising results”.

On to ACE-HIE-ALA-PRO-TRP-NME [4P3], for which, in the test with SARS-CoV-2 3CL^pro (pH 7.2), the “inhibition (loss) of 3CL^pro activity” value is “more than 80%”, the “inhibition of 3CL^pro (in words)” value is “most potent” and the “residual activity of 3CL^pro” value is listed as “below 20%”.

Regarding ACE-HIE-HIE-PRO-TYR-NME [4P4], the “inhibition (loss) of 3CL^pro activity” value in the test with SARS-CoV-2 3CL^pro (20 μM peptide, 500 nM 3CL^pro, 30 min pre-incubation, 50 µM DABCYL-KTSAVLQ↓SGFRKME-EDANS, 30 min, 37°C, 20 mM Tris pH 7.2, 200 mM NaCl, 1 mM EDTA, 1 mM TCEP, fluorescence 360/460 nm, mean, n = 3) is “more than 80%”. In addition, the “residual activity of 3CL^pro” value in the test with SARS-CoV-2 3CL^pro (20 μM peptide, 500 nM 3CL^pro, 30 min pre-incubation, 50 µM fluorogenic substrate, 37°C, pH 7.2, mean, n = 3) is “below 20%”.
